From ChEMBL document CHEMBL3217684, “Synthesis and cytotoxicity evaluation of regioisomeric substituted N-phenyl-3-(chrom-4-one-3-yl)-isoxazolidines: induction of apoptosis through a mitochondrial-dependent pathway” (Medchemcomm, 2013)
Calls of active or inactive are those of the source. No cut-off for these calls is given here.

How the values were obtained:
PC-3 = assay: Cytotoxicity against human PC3 cells assessed as inhibition of cell proliferation after 48 hrs by sulforhodamine-B assay; format: functional, cell-based; settings: PC-3, 48 h
Caco-2 = assay: Cytotoxicity against human Caco2 cells assessed as inhibition of cell proliferation after 48 hrs by sulforhodamine-B assay; format: functional, cell-based; settings: Caco-2, 48 h
A549 = assay: Cytotoxicity against human A549 cells assessed as inhibition of cell proliferation after 48 hrs by sulforhodamine-B assay; format: functional, cell-based; settings: A549, 48 h
THP-1 = assay: Cytotoxicity against human THP1 cells assessed as inhibition of cell proliferation after 48 hrs by sulforhodamine-B assay; format: functional, cell-based; settings: THP-1, 48 h
HL-60 [1] = assay: Induction of apoptosis in human HL60 cells assessed as intact mitochondrial membrane potential at 10 uM after 24 hrs by Rhodamine 123 staining based flow cytometry (reference value: 93.6%); format: functional
HL-60 [2] = assay: Induction of apoptosis in human HL60 cells assessed as condensation and fragmentation of nuclei at 50 to 100 uM after 24 hrs by DAPI staining based fluorescence microscopic analysis; format: functional, cell-based
HL-60 [3] = assay: Induction of apoptosis in human HL60 cells assessed as loss of mitochondrial membrane potential at 10 uM after 24 hrs by Rhodamine 123 staining based flow cytometry (reference value: 7%); format: functional
HL-60 [4] = assay: Induction of apoptosis in human HL60 cells assessed as loss of mitochondrial membrane potential at 50 uM after 24 hrs by Rhodamine 123 staining based flow cytometry (reference value: 7%); format: functional
HL-60 [5] = assay: Induction of apoptosis in human HL60 cells assessed as intact mitochondrial membrane potential at 50 uM after 24 hrs by Rhodamine 123 staining based flow cytometry (reference value: 93.6%); format: functional
HL-60 [6] = assay: Induction of apoptosis in human HL60 cells assessed as mitochondrial damage and loss of mitochondrial membrane potential after 24 hrs by Rhodamine 123 staining based flow cytometry; format: functional, cell-based
HL-60 [7] = assay: Induction of apoptosis in human HL60 cells assessed as accumulation of DNA at sub-G0 phase at 50 uM after 24 hrs by propidium iodide staining based flow cytometry (Rvb= 4.2%); format: functional
HL-60 [8] = assay: Induction of apoptosis in human HL60 cells assessed as intact mitochondrial membrane potential at 30 uM after 24 hrs by Rhodamine 123 staining based flow cytometry (reference value: 93.6%); format: functional
HL-60 [9] = assay: Induction of apoptosis in human HL60 cells assessed as accumulation of DNA at sub-G0 phase at 10 uM after 24 hrs by propidium iodide staining based flow cytometry (Rvb= 4.2%); format: functional
HL-60 [10] = assay: Induction of apoptosis in human HL60 cells assessed as DNA fragmentation at 50 uM after 24 hrs by agarose gel electrophoresis analysis; format: functional, cell-based
HL-60 [11] = assay: Induction of apoptosis in human HL60 cells assessed as accumulation of DNA at sub-G0 phase at 100 uM after 24 hrs by propidium iodide staining based flow cytometry (Rvb= 4.2%); format: functional
HL-60 [12] = assay: Induction of apoptosis in human HL60 cells assessed as accumulation of DNA at sub-G0 phase at 30 uM after 24 hrs by propidium iodide staining based flow cytometry (Rvb= 4.2%); format: functional
HL-60 [13] = assay: Induction of apoptosis in human HL60 cells assessed as loss of mitochondrial membrane potential at 30 uM after 24 hrs by Rhodamine 123 staining based flow cytometry (reference value: 7%); format: functional
HL-60 [14] = assay: Induction of apoptosis in human HL60 cells assessed as loss of mitochondrial membrane potential at 1 uM after 24 hrs by Rhodamine 123 staining based flow cytometry (reference value: 7%); format: functional
HL-60 [15] = assay: Induction of apoptosis in human HL60 cells assessed as accumulation of DNA at sub-G0 phase at 1 uM after 24 hrs by propidium iodide staining based flow cytometry (Rvb= 4.2%); format: functional
HL-60 [16] = assay: Induction of apoptosis in human HL60 cells assessed as intact mitochondrial membrane potential at 1 uM after 24 hrs by Rhodamine 123 staining based flow cytometry (reference value: 93.6%); format: functional

Cc1ccc2occ([C@@H]3[C@H]4C(=O)N(c5ccccc5)C(=O)[C@H]4ON3c3ccccc3)c(=O)c2c1
IC50 (PC-3): 11.1 µM
IC50 (Caco-2): > 60 µM
IC50 (A549): > 60 µM
IC50 (THP-1): > 60 µM

O=c1c([C@@H]2C[C@H](c3ccccc3)ON2c2ccccc2)coc2ccc(F)cc12 (relative stereo)
IC50 (PC-3): 49 µM
IC50 (Caco-2): 60 µM
IC50 (A549): 51.5 µM
IC50 (THP-1): 54.7 µM

O=c1c([C@@H]2C[C@H](c3ccccc3)ON2c2ccccc2)coc2ccc(Br)cc12 (relative stereo)
IC50 (PC-3): 60 µM
IC50 (Caco-2): > 60 µM
IC50 (A549): 51 µM
IC50 (THP-1): 60 µM

O=c1c([C@@H]2C[C@H](c3ccccc3)ON2c2ccccc2)coc2cc(Cl)c(Cl)cc12 (relative stereo)
IC50 (PC-3): 32 µM
IC50 (Caco-2): 23.5 µM
IC50 (A549): 43 µM
IC50 (THP-1): 38 µM

CCO[C@H]1C[C@@H](c2coc3ccc(F)cc3c2=O)N(c2ccccc2)O1 (relative stereo)
IC50 (PC-3): 31.7 µM
IC50 (Caco-2): > 60 µM
IC50 (A549): 26.4 µM
IC50 (THP-1): > 60 µM

CCO[C@H]1C[C@@H](c2coc3ccc(Br)cc3c2=O)N(c2ccccc2)O1 (relative stereo)
IC50 (PC-3): > 60 µM
IC50 (Caco-2): > 60 µM
IC50 (A549): 21.5 µM
IC50 (THP-1): > 60 µM

CCO[C@H]1C[C@@H](c2coc3cc(Cl)c(Cl)cc3c2=O)N(c2ccccc2)O1 (relative stereo)
IC50 (PC-3): > 60 µM
IC50 (Caco-2): > 60 µM
IC50 (A549): 19.8 µM
IC50 (THP-1): 16.5 µM

O=c1c([C@@H]2C[C@H](c3ccncc3)ON2c2ccccc2)coc2ccccc12 (relative stereo)
IC50 (PC-3): 46 µM
IC50 (Caco-2): 37 µM
IC50 (A549): 19.3 µM
IC50 (THP-1): 16.4 µM

COC(=O)[C@@]1(C)C[C@@H](c2coc3ccc(F)cc3c2=O)N(c2ccccc2)O1 (relative stereo)
IC50 (PC-3): 31.3 µM
IC50 (Caco-2): 29.5 µM
IC50 (A549): 20.3 µM
IC50 (THP-1): 47 µM

COC(=O)[C@@]1(C)C[C@@H](c2coc3ccc(Br)cc3c2=O)N(c2ccccc2)O1 (relative stereo)
IC50 (PC-3): > 60 µM
IC50 (Caco-2): > 60 µM
IC50 (A549): 9.9 µM
IC50 (THP-1): 14.7 µM

COC(=O)[C@@]1(C)C[C@@H](c2coc3ccc(C)cc3c2=O)N(c2ccccc2)O1 (relative stereo)
IC50 (PC-3): > 60 µM
Activity (HL-60 [1]): 92%
Activity (HL-60 [2]): Active
Activity (HL-60 [3]): 7.9%
Activity (HL-60 [4]): 53.9%
Activity (HL-60 [5]): 45.7%
Activity (HL-60 [6]): Dose-dependent effect
Activity (HL-60 [7]): 44.6%
Activity (HL-60 [8]): 62.9%
Activity (HL-60 [9]): 4.9%
Activity (HL-60 [10]): Active
IC50 (Caco-2): 19.7 µM
Activity (HL-60 [11]): 50.2%
IC50 (A549): 0.7 µM
Activity (HL-60 [12]): 41.6%
IC50 (THP-1): 7.3 µM
Activity (HL-60 [13]): 36.6%

O=C1[C@H]2[C@H](ON(c3ccccc3)[C@@H]2c2coc3ccc(F)cc3c2=O)C(=O)N1c1ccccc1 (relative stereo)
IC50 (PC-3): > 60 µM
IC50 (Caco-2): > 60 µM
IC50 (A549): 13.5 µM
IC50 (THP-1): 43.5 µM

O=C1[C@H]2[C@H](ON(c3ccccc3)[C@@H]2c2coc3ccc(Br)cc3c2=O)C(=O)N1c1ccccc1 (relative stereo)
IC50 (PC-3): 13.3 µM
IC50 (Caco-2): 20.3 µM
IC50 (A549): 17 µM
IC50 (THP-1): 22.3 µM

O=c1c([C@@H]2C[C@H](c3ccccc3)ON2c2ccccc2)coc2ccccc12 (relative stereo)
IC50 (PC-3): > 60 µM
IC50 (Caco-2): > 60 µM
IC50 (A549): > 60 µM
IC50 (THP-1): > 60 µM

Cc1ccc2occ([C@@H]3C[C@H](c4ccccc4)ON3c3ccccc3)c(=O)c2c1 (relative stereo)
IC50 (PC-3): > 60 µM
IC50 (Caco-2): 31.7 µM
IC50 (A549): 49 µM
IC50 (THP-1): > 60 µM

CCO[C@H]1C[C@@H](c2coc3ccccc3c2=O)N(c2ccccc2)O1 (relative stereo)
IC50 (PC-3): > 60 µM
IC50 (Caco-2): > 60 µM
IC50 (A549): > 60 µM
IC50 (THP-1): > 60 µM

CCO[C@H]1C[C@@H](c2coc3ccc(C)cc3c2=O)N(c2ccccc2)O1 (relative stereo)
IC50 (PC-3): 39 µM
IC50 (Caco-2): 31 µM
IC50 (A549): 20.7 µM
IC50 (THP-1): 41 µM

COC(=O)[C@H]1C[C@@H](c2coc3ccccc3c2=O)N(c2ccccc2)O1 (relative stereo)
IC50 (PC-3): > 60 µM
IC50 (Caco-2): > 60 µM
IC50 (A549): > 60 µM
IC50 (THP-1): > 60 µM

COC(=O)[C@H]1C[C@@H](c2coc3ccc(Cl)cc3c2=O)N(c2ccccc2)O1 (relative stereo)
IC50 (PC-3): > 60 µM
IC50 (Caco-2): > 60 µM
IC50 (A549): > 60 µM
IC50 (THP-1): > 60 µM

NC(=O)[C@H]1C[C@@H](c2coc3ccccc3c2=O)N(c2ccccc2)O1 (relative stereo)
IC50 (PC-3): > 60 µM
IC50 (Caco-2): > 60 µM
IC50 (A549): > 60 µM
IC50 (THP-1): > 60 µM

N#C[C@H]1C[C@@H](c2coc3ccc(Cl)cc3c2=O)N(c2ccccc2)O1 (relative stereo)
IC50 (PC-3): 41 µM
IC50 (Caco-2): 39 µM
IC50 (A549): 40 µM
IC50 (THP-1): 35 µM

Cc1ccc2occ([C@@H]3C[C@H](OCC(C)C)ON3c3ccccc3)c(=O)c2c1 (relative stereo)
IC50 (PC-3): 37.7 µM
IC50 (Caco-2): > 60 µM
IC50 (A549): 17.1 µM
IC50 (THP-1): 21.5 µM

CC[C@@]1(O)C(=O)OCc2c1cc1n(c2=O)Cc2cc3ccccc3nc2-1 [CAMPTOTHECIN]
Activity (HL-60 [14]): 53.3%
Activity (HL-60 [15]): 61.8%
Activity (HL-60 [16]): 46.1%

CO[C@@]12[C@H](COC(N)=O)C3=C(C(=O)C(C)=C(N)C3=O)N1C[C@@H]1N[C@@H]12 [MITOMYCIN]
IC50 (A549): 0.4 µM
